Laboratory results: ChEMBL document CHEMBL3301361, “Experimental in vitro DMPK and physicochemical data on a set of publicly disclosed compounds”
≈ marks a conversion by molar mass, not a printed value.

Legend:
[1] = physchem
[2] = physchem; remark: listed apart in the source
[3] = in vitro; conditions: human
[4] = in vitro; conditions: hepatocytes
[5] = physchem; conditions: octan-1-ol/water
[6] = in vitro; conditions: human, plasma, PPB
[7] = physchem; conditions: pH 7.4 buffer
[8] = buffer, pH 7.4
[9] = physchem; remark: listed apart in the source
[10] = physchem; remark: listed apart in the source
[11] = in vitro; conditions: SD, HW or BN, rat, plasma
[12] = in vitro; conditions: Beagle, dog, plasma
[13] = in vitro; conditions: mouse, plasma
[14] = in vitro; conditions: Dunkin Hartley, guinea pig, plasma
[15] = in vitro; conditions: human, hepatocytes

O=C(NCC12CC3CC(CC(C3)C1)C2)c1cc(CN2CC3CNCC(C2)O3)ccc1Cl
pKa [1]: 9 | pKa [2]: 10 | microsomal CLint ([3]; microsomes): 15 µL/min/mg | hepatocyte CLint [4]: 9 µL/min/1e6 cells | logD ([5]; pH 7.4, LogD7.4): 1.55 | fraction unbound at 5 h [6]: 0.0467

Cc1ccccc1C[C@@H](C(=O)O)N1CCC(CN2CCC(Oc3ccc(Cl)c(Cl)c3)CC2)CC1
pKa [1]: 7.55 | pKa [2]: 9.2 | microsomal CLint ([3]; liver microsomes): < 3 µL/min/mg | solubility thermodynamic [7]: 12.3 µM (≈ 6.22 µg/mL)

CC(CN(C)C)CN1c2ccccc2CCc2ccccc21 (centres undefined) [TRIMIPRAMINE]
LogD7.4 [8]: 2.95 | fraction unbound at 5 h [6]: 0.069

CCCc1c2oc(C(=O)O)cc(=O)c2cc2c(=O)cc(C(=O)O)n(CC)c12 [NEDOCROMIL]
pKa [9]: < 2 | pKa [10]: < 2

O=C(O)[C@H](Cc1ccccc1)N1CCC(CN2CCC(Oc3ccc(Cl)c(Cl)c3)CC2)CC1
pKa [1]: 7.75 | pKa [2]: 9.25 | fraction unbound at 5 h [11]: 0.183 | microsomal CLint ([3]; liver microsomes): < 3 µL/min/mg | fraction unbound at 5 h [12]: 0.11 | pKa [10]: 3.1 | fraction unbound at 5 h [13]: 0.154 | solubility thermodynamic [7]: 13.5 µM (≈ 6.63 µg/mL) | fraction unbound at 5 h [14]: 0.58

COc1cc2ncnc(Nc3ccc(F)c(Cl)c3)c2cc1NC(=O)/C=C/CN1CCCCC1 [DACOMITINIB ANHYDROUS]
pKa [1]: 5.2 | pKa [2]: 9.36 | hepatocyte CLint [4]: 9.77 µL/min/1e6 cells | hepatocyte CLint [15]: < 3 µL/min/1e6 cells | logD ([5]; pH 7.4, LogD7.4): 4.1 | fraction unbound at 5 h [6]: 0.0179 | solubility thermodynamic [7]: 6.8 µM (≈ 3.2 µg/mL)

Cc1c(S(=O)(=O)c2ccc(Cl)cc2)c2c(NS(C)(=O)=O)cccc2n1CC(=O)O
pKa [9]: 9.8 | pKa [10]: 2.8 | logD ([5]; pH 7.4, LogD7.4): -0.83

CS(=O)(=O)c1ccc(-c2cc(C(F)(F)F)ccc2OCC(=O)O)cc1
microsomal CLint ([3]; liver microsomes): < 3 µL/min/mg | LogD7.4 [8]: -0.87

CN1CCN(CCCN2c3ccccc3Sc3ccc(C(F)(F)F)cc32)CC1 [TRIFLUOPERAZINE]
fraction unbound at 5 h [11]: 0.007 | LogD7.4 [8]: 4.31 | fraction unbound at 5 h [6]: 0.0081

CC(C)/N=c1\cc2n(-c3ccc(Cl)cc3)c3ccccc3nc-2cc1Nc1ccc(Cl)cc1 [CLOFAZIMINE]
pKa [2]: 8.8 | fraction unbound at 5 h [11]: 0.0037 | LogD7.4 [8]: 3.17 | solubility thermodynamic [7]: 0.7 µM (≈ 0.331 µg/mL)

O=C(O)c1cc(=O)c2ccc(O)cc2o1
pKa [9]: 7.3 | pKa [10]: < 2

CCS(=O)(=O)c1ccc(-c2cc(Cl)ccc2OCC(=O)O)cc1
microsomal CLint ([3]; liver microsomes): < 3 µL/min/mg | LogD7.4 [8]: -0.78 | fraction unbound at 5 h [6]: 0.0274

CC(C)N1CCN(Cc2cnc(-c3cc(-c4cccc5[nH]ccc45)cc4[nH]ncc34)o2)CC1 [NEMIRALISIB]
pKa [1]: 2.4 | pKa [2]: 8.26 | fraction unbound at 5 h [11]: 0.0358 | logD ([5]; pH 7.4, LogD7.4): 3.49 | fraction unbound at 5 h [6]: 0.03

O=C(O)c1cc(=O)c2c(OCC(O)COc3cccc4oc(C(=O)O)cc(=O)c34)cccc2o1 [CROMOLYN]
pKa [9]: < 2 | pKa [10]: < 2

Clc1ccc2c(c1)CCc1cccnc1C2=C1CCNCC1 [DESLORATADINE]
pKa [1]: 4.57 | pKa [2]: 10 | fraction unbound at 5 h [11]: 0.145 | hepatocyte CLint [4]: 26.9 µL/min/1e6 cells | fraction unbound at 5 h [13]: 0.183 | logD ([5]; pH 7.4): 1.48

CN(c1ccc(-c2cc(F)ccc2OCC(=O)O)c(Cl)c1)S(C)(=O)=O
LogD7.4 [8]: -1.17

CCCc1c2nc(C(=O)O)cc(Cl)c2cc2c(=O)cc(C(=O)O)oc12
pKa [9]: 3.7

NC(=O)N1c2ccccc2CC(=O)c2ccccc21 [OXCARBAZEPINE]
LogD7.4 [8]: 1.28

O=c1c2ccccc2[se]n1-c1ccccc1 [EBSELEN]
LogD7.4 [8]: 3.31

CCOC(=O)C1(c2ccccc2)CCN(C)CC1 [MEPERIDINE]
LogD7.4 [8]: 1.4

Cc1cc(N(C)S(C)(=O)=O)ccc1-c1cc(C(F)(F)F)ccc1OCC(=O)O
microsomal CLint ([3]; liver microsomes): < 3 µL/min/mg | LogD7.4 [8]: -0.59

CC(CCc1ccccc1)NCC(O)c1ccc(O)c(C(N)=O)c1 (centres undefined) [LABETALOL]
LogD7.4 [8]: 1.06 | fraction unbound at 5 h [6]: 0.376

O=C([C@H]1CCCCN1)N1CCN(c2nc(NCc3ccc(Cl)cc3Cl)c3cccnc3n2)CC1
pKa [1]: 5.7 | pKa [2]: 9 | microsomal CLint ([3]; liver microsomes): 24 µL/min/mg | hepatocyte CLint [4]: 9.88 µL/min/1e6 cells | logD ([5]; pH 7.4, LogD7.4): 2.27

O=C(O)C(c1ccccc1)N1CCC(N2CCC(Oc3ccc(Cl)c(Cl)c3)CC2)CC1 (centres undefined)
pKa [1]: 6.5 | pKa [2]: 9.1 | microsomal CLint ([3]; liver microsomes): 6 µL/min/mg | logD ([5]; pH 7.4, LogD7.4): 2.23

CS(=O)(=O)c1ccc(-c2cc(Cl)ccc2OCC(=O)O)c(Cl)c1
fraction unbound at 5 h [11]: 0.035 | LogD7.4 [8]: -0.75 | fraction unbound at 5 h [6]: 0.0251

CCS(=O)(=O)c1ccc(-c2cc(Cl)ccc2OCC(=O)O)c(C)c1
LogD7.4 [8]: -0.65

CC1(C)NC(=O)N(c2ccc([N+](=O)[O-])c(C(F)(F)F)c2)C1=O [NILUTAMIDE]
LogD7.4 [8]: 1.74 | solubility thermodynamic [7]: 234 µM (≈ 74.4 µg/mL)
